Experiments:
[1] = Hygroscopicity: moisture absorption on exposure to atmospheric / normal storage conditions, stability studies; format: physicochemical; conditions: for hygroscopicity: normal storage conditions / stability studies
[2] = Moisture content by Karl Fischer titration; format: physicochemical
Procedure: • Differential scanning calorimetry plots were recorded using the following instrument and parameters: • DSC821 e, Mettler Toledo • Sample weight: 8-10 mg • Temperature range: 25-300° C. • Heating rate: 10° C./min • Nitrogen 20.0 mL/min • Number of holes in the crucible: 1 (d) TGA analysis was carried out using Perkin Elmer Instrument (e) Moisture content determination was carried out by Karl-Fischer titration technique using Mettler instrument.

Compound	moisture absorbed after exposure to atmospheric conditions ([1]; after exposure to atmospheric conditions)	hygroscopicity [1]	moisture content after absorption of water ([2]; TGA and Karl Fischer analysis, after absorption of water)	moisture content, initial ([2]; TGA and Karl Fischer analysis, initially)	Moisture Content ([2]; product of Example 3, dried at 45 to 50° C. under reduced pressure)
Cc1ccc(-c2nc3ccc(C)cn3c2CC(=O)N(C)C)cc1 [Form A, zolpidem hemitartrate]	up to 5 % w/w	very hygroscopic	up to 5%	about 1.0 % w/w	
Cc1ccc(-c2nc3ccc(C)cn3c2CC(=O)N(C)C)cc1 [Form I, zolpidem hemitartrate]		non-hygroscopic			2.33 % w/w
